The compounds below were run against T1, CD73 (Homo sapiens, UniProt P21589) (assay: CD73 biochemical assay, Malachite Green detection of AMP hydrolysis). Details: CD73 320 pM, AMP 15 μM, Malachite Green readout.
T1 sequence (P21589 27-549): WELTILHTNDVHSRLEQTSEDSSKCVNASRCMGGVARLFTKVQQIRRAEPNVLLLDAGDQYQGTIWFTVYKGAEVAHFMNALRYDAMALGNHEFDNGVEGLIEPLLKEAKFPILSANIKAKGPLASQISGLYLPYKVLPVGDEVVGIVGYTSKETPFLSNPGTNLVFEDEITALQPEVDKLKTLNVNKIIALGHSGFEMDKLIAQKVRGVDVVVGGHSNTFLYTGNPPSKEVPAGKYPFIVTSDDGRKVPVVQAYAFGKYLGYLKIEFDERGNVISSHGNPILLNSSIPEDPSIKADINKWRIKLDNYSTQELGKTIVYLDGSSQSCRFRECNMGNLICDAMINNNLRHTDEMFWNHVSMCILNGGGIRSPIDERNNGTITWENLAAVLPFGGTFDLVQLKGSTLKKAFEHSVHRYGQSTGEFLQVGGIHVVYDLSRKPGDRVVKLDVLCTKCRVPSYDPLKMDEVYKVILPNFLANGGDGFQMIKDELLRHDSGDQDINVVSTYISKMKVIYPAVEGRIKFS
Procedure: Assay Reaction Conditions
• Assay Volume: 70 μl • Reaction Volume: 50 μl • CD73: 0.3208 nM • AMP: 15 μM • Assay Buffer: 2 5 mM Tris-HCL, pH 7.4, 0.01% Brij-35, 0.01% BSA, 5 mM MgCl2 Assay Procedure:
A clear 384 well plate was used in this assay.
Made dose titration of testing compounds in assay buffer, 10 points ½ log titrations in duplicates starting at 100 μM. Total volume for each well was 25 μl, with CD73 then added to each well for a final concentration of 320 pM. The solution was then incubated at RT for 15 min. 25 μl of AMP was added to each well for a final concentration of 15 μM, and then incubated at rt for 10 min. 10 μl of Malachite Green Reagent A was then added and allowed to incubate at rt for 10 min. 10 μl of Malachite Green Reagent B was then added and allowed to incubate at rt for 45 min. The absorbance for each sample was read on an Envision plate reader using excitation filter: Cy5 […].
The ability of the compounds disclosed herein to inhibit CD73 activity was quantified and the respective IC50 values were determined. Table 2 provides the biochemical IC50 values of compounds disclosed herein.

| SMILES | IC50 |
| --- | --- |
| COC[C@@](COCc1nn[nH]n1)(OC[C@H]1O[C@@H](c2ccc3c(NC4CCCC4)nc(Cl)nn23)[C@H](O)[C@@H]1O)P(=O)(O)O [Example 10, ((R)-1-((2H-tetrazol-5-yl)methoxy)-2-(((2R,3S,4R,5S)-5-(2-chloro-4-(cyclopentylamino)pyrrolo[2,1-f][1,2,4]triazin-7-yl)-3,4-dihydroxytetrahydrofuran-2-yl)methoxy)-3-methoxypropan-2-yl)phosphonic acid] | 1 to 100 nM |
| O=P(O)(O)C(CO)(COCc1nnn[nH]1)OC[C@H]1O[C@@H](c2cnn3c(NC4CCCC4)cc(Cl)nc23)[C@H](O)[C@@H]1O (some centres unmarked) [Example 38] | ≤ 0.5 nM |
| O=P(O)(O)C(CO)OC[C@H]1O[C@@H](c2ccc3c(NC4CCCC4)nc(Cl)nn23)[C@H](O)[C@@H]1O (stereo partly drawn) [Example 13, (1-(((2R,3S,4R,5S)-5-(2-chloro-4-(cyclopentylamino)pyrrolo[2,1-f][1,2,4]triazin-7-yl)-3,4-dihydroxytetrahydrofuran-2-yl)methoxy)-2-hydroxyethyl)phosphonic acid] | 1 to 100 nM |
| O=P(O)(O)[C@](CO)(COCc1nn[nH]n1)OC[C@H]1O[C@@H](c2ccc3c(NCC4CC4)nc(Cl)nn23)[C@H](O)[C@@H]1O [Example 54, ((R)-1-((2H-tetrazol-5-yl)methoxy)-2-(((2R,3S,4R,5S)-5-(2-chloro-4-((cyclopropylmethyl)amino)pyrrolo[2,1-f][1,2,4]triazin-7-yl)-3,4-dihydroxytetrahydrofuran-2-yl)methoxy)-3-hydroxypropan-2-yl)phosphonic acid] | 1 to 100 nM |
| COC[C@](CC(=O)O)(OC[C@H]1O[C@@H](c2ccc3c(NC4CCCC4)nc(Cl)nn23)[C@H](O)[C@@H]1O)P(=O)(O)O [Example 45, (R)-3-(((2R,3S,4R,5S)-5-(2-Chloro-4-(Cyclopentylamino)pyrrolo[2,1-f][1,2,4]triazin-7-yl)-3,4-dihydroxytetrahydrofuran-2-yl)methoxy)-4-methoxy-3-phosphonobutanoic acid] | ≤ 0.5 nM |
| CCOC(=O)COCC(CO)(OC[C@H]1O[C@@H](c2ccc3c(NC4CCCC4)nc(Cl)nn23)[C@H](O)[C@@H]1O)P(=O)(O)O (stereo partly drawn) [Example 24, (2-(((2R,3S,4R,5S)-5-(2-chloro-4-(cyclopentylamino)pyrrolo[2,1-f][1,2,4]triazin-7-yl)-3,4-dihydroxytetrahydrofuran-2-yl)methoxy)-1-(2-ethoxy-2-oxoethoxy)-3-hydroxypropan-2-yl)phosphonic acid] | 1 to 100 nM |
| O=P(O)(O)C(CO)(CO)OC[C@H]1O[C@@H](c2ccc3c(NCc4ccccc4Cl)nc(Cl)nn23)[C@H](O)[C@@H]1O [Example 27, (2-(((2R,3S,4R,5S)-5-(2-chloro-4-((2-chlorobenzyl)amino)pyrrolo[2,1-f][1,2,4]triazin-7-yl)-3,4-dihydroxytetrahydrofuran-2-yl)methoxy)-1,3-dihydroxypropan-2-yl)phosphonic acid] | 1 to 100 nM |
| COCC(CO)(OC[C@H]1O[C@@H](c2cnn3c(NC4CCCC4)cc(Cl)nc23)[C@H](O)[C@@H]1O)P(=O)(O)O (stereo partly drawn) [Example 56, (2-(((2R,3S,4R,5S)-5-(5-chloro-7-(cyclopentylamino)pyrazolo[1,5-a]pyrimidin-3-yl)-3,4-dihydroxytetrahydrofuran-2-yl)methoxy)-1-hydroxy-3-methoxypropan-2-yl)phosphonic acid] | 1 to 100 nM |
| O=P(O)(O)[C@](CO)(COCc1nn[nH]n1)OC[C@H]1O[C@@H](c2ccc3c(NC4CCC4)nc(Cl)nn23)[C@H](O)[C@@H]1O [Example 50, ((R)-1-((2H-tetrazol-5-yl)methoxy)-2-(((2R,3S,4R,5S)-5-(2-chloro-4-(cyclobutylamino)pyrrolo[2,1-f][1,2,4]triazin-7-yl)-3,4-dihydroxytetrahydrofuran-2-yl)methoxy)-3-hydroxypropan-2-yl)phosphonic acid] | 0.5 to 1 nM |
| O=P(O)(O)[C@@](CO)(Cc1nn[nH]n1)OC[C@H]1O[C@@H](c2ccc3c(NC4CCCC4)nc(Cl)nn23)[C@H](O)[C@@H]1O [Example 1, ((R)-2-(((2R,3S,4R,5S)-5-(2-Chloro-4-(cyclopentylamino)pyrrolo[2,1-f][1,2,4]triazin-7-yl)-3,4-dihydroxytetrahydrofuran-2-yl)methoxy)-1-hydroxy-3-(2H-tetrazol-5-yl)propan-2-yl)phosphonic acid] | ≤ 0.5 nM |
| O=P(O)(O)C(CO)(CO)OC[C@H]1O[C@@H](c2cnn3c(NC4CCCC4)cc(Cl)nc23)[C@H](O)[C@@H]1O [Example 17, (2-(((2R,3S,4R,5S)-5-(5-Chloro-7-(cyclopentylamino)pyrazolo[1,5-a]pyrimidin-3-yl)-3,4-dihydroxytetrahydrofuran-2-yl)methoxy)-1,3-dihydroxypropan-2-yl)phosphonic acid] | 0.5 to 1 nM |
| COC[C@@](OC[C@H]1O[C@@H](c2ccc3c(NC4CCCC4)nc(Cl)nn23)[C@H](O)[C@@H]1O)(C(=O)O)P(=O)(O)O [Example 42, (S)-2-(((2R,3 S,4R,5S)-5-(2-chloro-4-(cyclopentylamino)pyrrolo[2,1-f][1,2,4]triazin-7-yl)-3,4-dihydroxytetrahydrofuran-2-yl)methoxy)-3-methoxy-2-phosphonopropanoic acid] | ≤ 0.5 nM |
| C[C@@]1(c2ccc3c(NC4CCCC4)nc(Cl)nn23)O[C@H](CO[C@](CO)(COCc2nn[nH]n2)P(=O)(O)O)[C@@H](O)[C@H]1O [Example 37, ((S)-1-((2H-tetrazol-5-yl)methoxy)-2-(((2R,3S,4R,5S)-5-(2-chloro-4-(cyclopentylamino)pyrrolo[2,1-f][1,2,4]triazin-7-yl)-3,4-dihydroxy-5-methyltetrahydrofuran-2-yl)methoxy)-3-hydroxypropan-2-yl)phosphonic acid] | 100 to 1000 nM |
| O=P(O)(O)[C@@](CO)(COCc1nn[nH]n1)OC[C@H]1O[C@@H](c2ccc3c(NCC4CCCC4)nc(Cl)nn23)[C@H](O)[C@@H]1O [Example 46, ((S)-1-((2H-tetrazol-5-yl)methoxy)-2-(((2R,3S,4R,5S)-5-(2-chloro-4-((cyclopentylmethyl)amino)pyrrolo[2,1-f][1,2,4]triazin-7-yl)-3,4-dihydroxytetrahydrofuran-2-yl)methoxy)-3-hydroxypropan-2-yl)phosphonic acid] | ≤ 0.5 nM |
| COCC(OC[C@H]1O[C@@H](c2ccc3c(NC4CCCC4)nc(Cl)nn23)[C@H](O)[C@@H]1O)(C(=O)O)P(=O)(O)O (stereo partly drawn) [Example 8, 2-(((2R,3S,4R,5S)-5-(2-Chloro-4-(cyclopentylamino)pyrrolo[2,1-f][1,2,4]triazin-7-yl)-3,4-dihydroxytetrahydrofuran-2-yl)methoxy)-3-methoxy-2-phosphonopropanoic acid] | 0.5 to 1 nM |
| O=P(O)(O)C(CO)(COCc1nnn[nH]1)OC[C@H]1O[C@@H](c2ccc3c(NCC4CCC4)nc(Cl)nn23)[C@H](O)[C@@H]1O (stereo partly drawn) [Example 39, (1-((1H-tetrazol-5-yl)methoxy)-2-(((2R,3S,4R,5S)-5-(2-chloro-4-((cyclobutylmethyl)amino)pyrrolo[2,1-f][1,2,4]triazin-7-yl)-3,4-dihydroxytetrahydrofuran-2-yl)methoxy)-3-hydroxypropan-2-yl)phosphonic acid] | ≤ 0.5 nM |
| COC[C@@](CO)(OC[C@H]1O[C@@H](c2ccc3c(NC4CCCC4)nc(Cl)nn23)[C@H](O)[C@@H]1O)P(=O)(O)O [Example 7, ((S)-2-(((2R,3S,4R,5S)-5-(2-chloro-4-(cyclopentylamino)pyrrolo[2,1-f][1,2,4]triazin-7-yl)-3,4-dihydroxytetrahydrofuran-2-yl)methoxy)-1-hydroxy-3-methoxypropan-2-yl)phosphonic acid] | 1 to 100 nM |
| COC[C@](Cc1nn[nH]n1)(OC[C@H]1O[C@@H](c2ccc3c(NC4CCCC4)nc(Cl)nn23)[C@H](O)[C@@H]1O)P(=O)(O)O (single isomer, unassigned) [Example 3] | ≤ 0.5 nM |
| COCC(C)(OC[C@H]1O[C@@H](c2ccc3c(NC4CCCC4)nc(Cl)nn23)[C@H](O)[C@@H]1O)P(=O)(O)O (stereo partly drawn) [Example 22, (2-(((2R,3S,4R,5S)-5-(2-chloro-4-(cyclopentylamino)pyrrolo[2,1-f][1,2,4]triazin-7-yl)-3,4-dihydroxytetrahydrofuran-2-yl)methoxy)-1-methoxypropan-2-yl)phosphonic acid] | ≤ 0.5 nM |
| O=c1[nH]c(COC[C@@](CO)(OC[C@H]2O[C@@H](c3ccc4c(NCC5CC5)nc(Cl)nn34)[C@H](O)[C@@H]2O)P(=O)(O)O)no1 [Example 44, ((S)-2-(((2R,3S,4R,5S)-5-(2-chloro-4-((cyclopropylmethyl)amino)pyrrolo[2,1-f][1,2,4]triazin-7-yl)-3,4-dihydroxytetrahydrofuran-2-yl)methoxy)-1-hydroxy-3-((5-oxo-4,5-dihydro-1,2,4-oxadiazol-3-yl)methoxy)propan-2-yl)phosphonic acid] | ≤ 0.5 nM |
